According to US9499550B2 (BRISTOL-MYERS SQUIBB COMPANY, priority 2012, dated 2016):
Like-named read-outs stand apart in the source and are kept apart here.

Columns and labels:
[1] = test system: HCV genotype 1a (H77 strain) replicon in HUH-7 cells; experiment: HCV replicon luciferase reporter assay, genotype 1a; type: cell-based; conditions: Hepatitis C virus, Huh-7, 72 h, 3 days incubation
Summary of the method: (§1)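 Replicon inhibition for both genotypes was measured as Renilla luciferase signal (EnduRen, 7.5 μM final, 2 h) after 3-day, 37° C exposure of replicon-bearing HUH-7 cells in 4% FCS DMEM, 0.5% DMSO. The 1b construct carries S1179I; the 1a H77 construct carries P1496L and S2204I. Twenty-point, 3-fold dilutions were fitted four-parametrically for EC50, and CC50 was taken from multiplexed Cell Titer-Blue.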

[2] = test system: HCV genotype 1b (Con1) replicon in HUH-7 cells; experiment: HCV replicon luciferase reporter assay, genotype 1b; type: cell-based; conditions: Hepatitis C virus, Huh-7, 72 h, 3 days incubation
Summary of the method: as §1

[3] = HCV genotype 1a replicon luciferase, read-out: LE_1a (EC50, range)
[4] = HCV genotype 1b replicon luciferase, read-out: LE_1b (EC50, range)
[5] = HCV genotype 1a replicon luciferase assay, range class, read-out: LE_1a (EC50, range)
[6] = HCV genotype 1b replicon luciferase assay, range class, read-out: LE_1b (EC50, range)

| SMILES | EC50 [1, 3] [nM] | EC50 [2, 4] [nM] | EC50 [1, 5] [nM] | EC50 [2, 6] [nM] | other results |
| --- | --- | --- | --- | --- | --- |
| CCn1nc(O[C@@H]2C[C@H]3C(=O)N[C@]4(C(=O)NS(=O)(=O)C5CC5)C[C@H]4/C=C\CC[C@H](C)C[C@@H](C)[C@H](NC(=O)C(=O)N(C)C)C(=O)N3C2)c2ccccc2c1=O [Compound 5075, N1-((2R,6S,7R,9S,13aS,14aR,16aS,Z)-14a-((cyclopropylsulfonyl)carbamoyl)-2-((3-ethyl-4-oxo-3,4-dihydrophthalazin-1-yl)oxy)-7,9-dimethyl-5,16-dioxo-1,2,3,5,6,7,8,9,10,11,13a,14,14a,15,16,16a-hexadecahydrocyclopropa[e]pyrrolo[1,2-a][1,4]diazacyclopentadecin-6-yl)-N2,N2-dimethyloxalamide] | > 87.4 | > 87.4 |  |  | EC50 ([1]; HCV genotype 1a replicon luciferase, read-out: LE_1a (EC50)): ≥ 1000 nM; EC50 ([2]; HCV genotype 1b replicon luciferase, read-out: LE_1b (EC50)): 1000 nM |
| C[C@@H]1CC/C=C\[C@@H]2C[C@@]2(C(=O)NS(=O)(=O)C2CC2)NC(=O)[C@@H]2C[C@@H](Oc3ncc(OCC(F)F)c4ccccc34)CN2C(=O)[C@@H](NC(=O)OC(C)(C)C(F)(F)F)[C@H](C)C1 [Compound 1032, 1,1,1-trifluoro-2-methylpropan-2-yl((2R,6S,7R,9R,13aS,14aR,16aS,Z)-14a-((cyclopropylsulfonyl)carbamoyl)-2-((4-(2,2-difluoroethoxyl)isoquinolin-1-yl)oxy)-7,9-dimethyl-5,16-dioxo-1,2,3,5,6,7,8,9,10,11,13a,14,14a,15,16,16a-hexadecahydrocyclopropa[e]pyrrolo[1,2-a][1,4]diazacyclopentadecin-6-yl)carbamate] |  |  | < 5.46 | < 5.46 |  |
| CC[C@@H]1C[C@H](C)CC/C=C\[C@@H]2C[C@@]2(C(=O)NS(=O)(=O)C2CC2)NC(=O)[C@@H]2C[C@@H](Oc3nccc4cc(OC)ccc34)CN2C(=O)[C@H]1NC(=O)OC(C)(C)C [Compound 4005, tert-butyl (2R,6S,7R,9R,13aS,14aR,16aS,Z)-14a-(cyclopropylsulfonylcarbamoyl)-7-ethyl-2-(6-methoxyisoquinolin-1-yloxy)-9-methyl-5,16-dioxo-1,2,3,5,6,7,8,9,10,11,13a,14,14a,15,16,16a-hexadecahydrocyclopropa[e]pyrrolo[1,2-a][1,4]diazacyclopentadecin-6-ylcarbamate] | < 5.46 | < 5.46 |  |  |  |
| COc1cnc(O[C@@H]2C[C@H]3C(=O)N[C@]4(C(=O)NS(=O)(=O)C5(CF)CC5)C[C@H]4/C=C\CC[C@@H](C)C[C@@H](C)[C@H](NC(=O)OC4COC4)C(=O)N3C2)c2ccccc12 [Compound 1041, oxetan-3-yl ((2R,6S,7R,9R,13aS,14aR,16aS,Z)-14a-(((1-(fluoromethyl)cyclopropyl)sulfonyl)carbamoyl)-2-((4-methoxyisoquinolin-1-yl)oxy)-7,9-dimethyl-5,16-dioxo-1,2,3,5,6,7,8,9,10,11,13a,14,14a,15,16,16a-hexadecahydrocyclopropa[e]pyrrolo[1,2-a][1,4]diazacyclopentadecin-6-yl)carbamate] |  |  | 4.82 to 103 | < 5.46 |  |
| COc1ccc2c(O[C@@H]3C[C@H]4C(=O)N[C@]5(C(=O)NS(=O)(=O)C6(C)CC6)C[C@H]5/C=C\CC[C@@H](C)C[C@@H](C)[C@H](NC(=O)O[C@H](C)C(F)(F)F)C(=O)N4C3)nc(-c3ccc(OC(C)C)c(F)c3)cc2c1 [Compound 3076, (R)-1,1,1-trifluoropropan-2-yl ((2R,6S,7R,9R,13aS,14aR,16aS,Z)-2-((3-(3-fluoro-4-isopropoxyphenyl)-6-methoxyisoquinolin-1-yl)oxy)-7,9-dimethyl-14a-(((1-methylcyclopropyl)sulfonyl)carbamoyl)-5,16-dioxo-1,2,3,5,6,7,8,9,10,11,13a,14,14a,15,16,16a-hexadecahydrocyclopropa[e]pyrrolo[1,2-a][1,4]diazacyclopentadecin-6-yl)carbamate] |  |  | < 5.46 | < 5.46 |  |
| CC[C@@H]1C[C@H](C)CC/C=C\[C@@H]2C[C@@]2(C(=O)NS(=O)(=O)C2(CF)CC2)NC(=O)[C@@H]2C[C@@H](Oc3nc4c(c5cc(OC)ccc35)CCCO4)CN2C(=O)[C@H]1NC(=O)OC(C)(C)C(F)(F)F [Compound 6086, 1,1,1-trifluoro-2-methylpropan-2-yl((2R,6S,7R,9R,13aS,14aR,16aS,Z)-7-ethyl-14a-(((1-(fluoromethyl)cyclopropyl)sulfonyl)carbamoyl)-2-((9-methoxy-2,3-dihydro-1H-pyrano[2,3-c]isoquinolin-6-yl)oxy)-9-methyl-5,16-dioxo-1,2,3,5,6,7,8,9,10,11,13a,14,14a,15,16,16a-hexadecahydrocyclopropa[e]pyrrolo[1,2-a][1,4]diazacyclopentadecin-6-yl)carbamate] | 5.01 to 35 | 5.01 to 35 |  |  |  |
| COc1ccc2nc(OC)c(O[C@@H]3C[C@H]4C(=O)N[C@]5(C(=O)NS(=O)(=O)C6(CF)CC6)C[C@H]5/C=C\CC[C@@H](C)C[C@@H](C)[C@H](NC(=O)OC(C)(C)C)C(=O)N4C3)cc2c1 [Compound 4376, tert-butyl ((2R,6S,7R,9R,13aS,14aR,16aS,Z)-2-((2,6-dimethoxyquinolin-3-yl)oxy)-14a-(((1-(fluoromethyl)cyclopropyl)sulfonyl)carbamoyl)-7,9-dimethyl-5,16-dioxo-1,2,3,5,6,7,8,9,10,11,13a,14,14a,15,16,16a-hexadecahydrocyclopropa[e]pyrrolo[1,2-a][1,4]diazacyclopentadecin-6-yl)carbamate] | 1.01 to 5 | 0.1 to 0.5 |  |  |  |
| CC[C@@H]1C[C@H](C)CC/C=C\[C@@H]2C[C@@]2(C(=O)NS(=O)(=O)C2(C)CC2)NC(=O)[C@@H]2C[C@@H](Oc3cnnc4cc(OC)ccc34)CN2C(=O)[C@H]1NC(=O)OC(C)(C)C(F)(F)F [Compound 4320] |  |  |  |  | EC50 ([1]; GETYPE1A, HCV genotype 1a replicon luciferase, read-out: LE_1a (EC50)): 15 nM; EC50 ([1]; GETYPE1A, HCV genotype 1a replicon luciferase, read-out: LE_1a (EC50, range)): 5.01 to 35 nM; EC50 ([2]; GETYPE1B, HCV genotype 1b replicon luciferase, read-out: LE_1b (EC50)): 21.9 nM; EC50 ([2]; GETYPE1B, HCV genotype 1b replicon luciferase, read-out: LE_1b (EC50, range)): 5.01 to 35 nM |
| CCOc1ccc2c(O[C@@H]3C[C@H]4C(=O)N[C@]5(C(=O)NS(=O)(=O)C6(C)CC6)C[C@H]5/C=C\CC[C@H](C)C[C@@H](C)[C@H](NC(=O)OC(C)(C)C(F)(F)F)C(=O)N4C3)ncc(OC)c2c1 [Compound 3139, 1,1,1-trifluoro-2-methylpropan-2-yl((2R,6S,7R,9S,13aS,14aR,16aS,Z)-2-((6-ethoxy-4-methoxyisoquinolin-1-yl)oxy)-7,9-dimethyl-14a-(((1-methylcyclopropyl)sulfonyl)carbamoyl)-5,16-dioxo-1,2,3,5,6,7,8,9,10,11,13a,14,14a,15,16,16a-hexadecahydrocyclopropa[e]pyrrolo[1,2-a][1,4]diazacyclopentadecin-6-yl)carbamate] |  |  | < 5.46 | < 5.46 |  |
| CC[C@@H]1C[C@H](C)CC/C=C\[C@@H]2C[C@@]2(C(=O)NS(=O)(=O)C2(C)CC2)NC(=O)[C@@H]2C[C@@H](Oc3ncc(OC)c4ccccc34)CN2C(=O)[C@H]1NC(=O)OC(C)(C)C(C)(F)F [Compound 5437, 3,3-difluoro-2-methylbutan-2-yl((2R,6S,7R,9R,13aS,14aR,16aS,Z)-7-ethyl-2-((4-methoxyisoquinolin-1-yl)oxy)-9-methyl-14a-(((1-methylcyclopropyl)sulfonyl)carbamoyl)-5,16-dioxo-1,2,3,5,6,7,8,9,10,11,13a,14,14a,15,16,16a-hexadecahydrocyclopropa[e]pyrrolo[1,2-a][1,4]diazacyclopentadecin-6-yl)carbamate] | 1.01 to 5 | 0.1 to 0.5 |  |  |  |
| C[C@@H]1CC/C=C\[C@@H]2C[C@@]2(C(=O)NS(=O)(=O)C2(CF)CC2)NC(=O)[C@@H]2C[C@@H](Oc3nccc4c5c(ccc34)OCCO5)CN2C(=O)[C@@H](NC(=O)OC(C)(C)C(F)(F)F)[C@H](C)C1 [Compound 5323, 1,1,1-trifluoro-2-methylpropan-2-yl((2R,6S,7R,9R,13aS,14aR,16aS,Z)-2-((2,3-dihydro-[1,4]dioxino[2,3-f]isoquinolin-7-yl)oxy)-14a-(((1-(fluoromethyl)cyclopropyl)sulfonyl)carbamoyl)-7,9-dimethyl-5,16-dioxo-1,2,3,5,6,7,8,9,10,11,13a,14,14a,15,16,16a-hexadecahydrocyclopropa[e]pyrrolo[1,2-a][1,4]diazacyclopentadecin-6-yl)carbamate] | < 5.46 | < 5.46 |  |  |  |
| C[C@H]1CC/C=C\[C@@H]2C[C@@]2(C(=O)NS(=O)(=O)C2(C)CC2)NC(=O)[C@@H]2C[C@@H](Oc3nccc4c5c(ccc34)N(C)CCO5)CN2C(=O)[C@@H](NC(=O)OC(C)(C)C(F)(F)F)[C@H](C)C1 [Compound 5295, 1,1,1-trifluoro-2-methylpropan-2-yl((2R,6S,7R,9S,13aS,14aR,16aS,Z)-7,9-dimethyl-2-((4-methyl-3,4-dihydro-2H-[1,4]oxazino[2,3-f]isoquinolin-7-yl)oxy)-14a-(((1-methylcyclopropyl)sulfonyl)carbamoyl)-5,16-dioxo-1,2,3,5,6,7,8,9,10,11,13a,14,14a,15,16,16a-hexadecahydrocyclopropa[e]pyrrolo[1,2-a][1,4]diazacyclopentadecin-6-yl)carbamate] | 4.82 to 103 | < 5.46 |  |  |  |
